Results taken from PubChem BioAssay (NCI).
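Where inhibition never reached the appropriate level, the endpoint shown equals the highest concentration tested. Otherwise, values were interpolated linearly from a five-concentration, 48-hour dose response in 96-well plates. TGI denotes the concentration required for complete inhibition of growth.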

How the values were obtained:
Assay in all cases: NCI anticancer screen, dose series, 48 h
[1] = test system: SNB-78 CNS
[2] = test system: K-562 leukemia
[3] = test system: DU-145 prostate
[4] = test system: SNB-19 CNS
[5] = test system: HCT-116 colon
[6] = test system: NCI-H226 lung
[7] = test system: HCC-2998 colon
[8] = test system: SF-539 CNS
[9] = test system: DLD-1 colon
[10] = test system: SNB-75 CNS
[11] = test system: OVCAR-4 ovarian
[12] = test system: MALME-3M melanoma
[13] = test system: NCI-H522 lung
[14] = test system: TK-10 renal
[15] = test system: HOP-62 NSCLC
[16] = test system: KM20L2 colon
[17] = test system: SK-MEL-5 melanoma
[18] = test system: MDA-MB-231 breast
[19] = test system: M14 melanoma
[20] = test system: SW-620 colon
[21] = test system: PC-3 prostate
[22] = test system: NCI/ADR-RES ovarian
[23] = test system: OVCAR-5 ovarian
[24] = test system: MDA-N
[25] = test system: SF-295 CNS
[26] = test system: HL-60(TB) leukemia
[27] = test system: MCF7 breast
[28] = test system: U251 CNS
[29] = test system: SK-MEL-28 melanoma
[30] = test system: NCI-H23 lung
[31] = test system: CCRF-CEM leukemia
[32] = test system: SF-268 CNS
[33] = test system: ACHN renal
[34] = test system: OVCAR-3 ovarian
[35] = test system: SR leukemia
[36] = test system: RPMI-8226 leukemia
[37] = test system: EKVX NSCLC
[38] = test system: MOLT-4 leukemia
[39] = test system: IGROV1 ovarian
[40] = test system: T-47D breast
[41] = test system: 786-0 renal
[42] = test system: HT29 colon
[43] = test system: HCT-15 colon
[44] = test system: CAKI-1 renal
[45] = test system: LXFL 529 NSCLC
[46] = test system: BT-549 breast
[47] = test system: A549 NSCLC
[48] = test system: SK-OV-3 ovarian
[49] = test system: OVCAR-8 ovarian
[50] = test system: LOX IMVI melanoma
[51] = test system: UACC-257 melanoma
[52] = test system: NCI-H460 lung
[53] = test system: UACC-62 melanoma
[54] = test system: SN12C renal
[55] = test system: COLO 205 colon
[56] = test system: DMS 114 small cell lung
[57] = test system: KM12 colon
[58] = test system: A498 renal
[59] = test system: SK-MEL-2 melanoma
[60] = test system: M19-MEL melanoma
[61] = test system: HOP-18 NSCLC
[62] = test system: HOP-92 NSCLC
[63] = test system: DMS 273 small cell lung
[64] = test system: RXF 393 renal
[65] = test system: UO-31 renal
[66] = test system: XF 498 CNS

CC1=NN(C(=O)c2ccccc2O)C(=O)/C1=C/c1ccc(O)cc1
TGI [1]: > 100 µM | TGI [2]: > 100 µM | TGI [3]: > 100 µM | TGI [4]: > 100 µM | TGI [5]: > 100 µM | TGI [6]: 41.2 µM | TGI [7]: > 100 µM | TGI [8]: 6.73 µM | TGI [9]: > 100 µM | TGI [10]: > 100 µM | TGI [11]: > 100 µM | TGI [12]: > 100 µM | TGI [13]: 17.4 µM | TGI [14]: > 100 µM | TGI [15]: > 100 µM | TGI [16]: > 100 µM | TGI [17]: > 100 µM | TGI [18]: > 100 µM | TGI [19]: 22.4 µM | TGI [20]: > 100 µM | TGI [21]: > 100 µM | TGI [22]: 28.3 µM | TGI [23]: > 100 µM | TGI [24]: > 100 µM | TGI [25]: > 100 µM | TGI [26]: > 41.1 µM | TGI [27]: > 100 µM | TGI [28]: > 100 µM | TGI [29]: > 100 µM | TGI [30]: 19.9 µM | TGI [31]: > 100 µM | TGI [32]: > 100 µM | TGI [33]: > 100 µM | TGI [34]: 3.43 µM | TGI [35]: > 100 µM | TGI [36]: > 100 µM | TGI [37]: > 100 µM | TGI [38]: > 100 µM | TGI [39]: 5.03 µM | TGI [40]: > 100 µM | TGI [41]: > 100 µM | TGI [42]: > 100 µM | TGI [43]: > 100 µM | TGI [44]: > 100 µM | TGI [45]: > 100 µM | TGI [46]: > 100 µM | TGI [47]: > 100 µM | TGI [48]: > 100 µM | TGI [49]: > 100 µM | TGI [50]: > 82.1 µM | TGI [51]: > 100 µM | TGI [52]: > 100 µM | TGI [53]: 5.06 µM | TGI [54]: > 78.7 µM | TGI [55]: > 94.6 µM | TGI [56]: 16.1 µM | TGI [57]: > 100 µM

O=C1C=CC(=O)C2=C1[C@@H](O)C1CC=CC3C(=O)O[C@@H]2C31 (stereo not given in full)
TGI [1]: > 62.3 µM | TGI [2]: > 61.5 µM | TGI [58]: > 100 µM | TGI [4]: > 100 µM | TGI [5]: 39.7 µM | TGI [6]: > 75.1 µM | TGI [59]: 35.6 µM | TGI [7]: 34.6 µM | TGI [8]: > 58.6 µM | TGI [9]: 37.9 µM | TGI [10]: 50.7 µM | TGI [11]: 17.7 µM | TGI [12]: 34.6 µM | TGI [60]: > 58.3 µM | TGI [13]: 34.8 µM | TGI [14]: > 58.1 µM | TGI [15]: > 100 µM | TGI [16]: 60.9 µM | TGI [17]: 41.2 µM | TGI [19]: 36 µM | TGI [20]: 57 µM | TGI [23]: > 100 µM | TGI [25]: > 100 µM | TGI [26]: 40.4 µM | TGI [61]: > 62 µM | TGI [28]: > 100 µM | TGI [29]: > 62.3 µM | TGI [30]: > 68 µM | TGI [31]: 42.9 µM | TGI [32]: > 70.6 µM | TGI [33]: > 69.9 µM | TGI [34]: 36.8 µM | TGI [35]: > 100 µM | TGI [62]: 45.4 µM | TGI [63]: 49.4 µM | TGI [36]: 57.7 µM | TGI [37]: > 100 µM | TGI [38]: 56.5 µM | TGI [39]: 22.6 µM | TGI [41]: > 55.2 µM | TGI [42]: > 65.4 µM | TGI [43]: 44.1 µM | TGI [44]: 35.2 µM | TGI [45]: 29.3 µM | TGI [47]: > 100 µM | TGI [48]: > 100 µM | TGI [49]: > 71.3 µM | TGI [50]: 50.1 µM | TGI [64]: 33.9 µM | TGI [65]: > 71.5 µM | TGI [51]: > 57.5 µM | TGI [52]: > 100 µM | TGI [53]: 35.8 µM | TGI [54]: 37.2 µM | TGI [55]: 37 µM | TGI [56]: 51.3 µM | TGI [66]: 42.1 µM | TGI [57]: 41.2 µM
